Holding throughout (assay type): biochemical
One assay concerns the target PDE1C (Homo sapiens (Human), UniProt Q14123). Description: PDE1 inhibition assay, PDE1C. The conditions noted are these: for IC50: 15 nM tritium labelled cAMP, 1 hr at room temperature, SPA beads, read-out: PDE1 C, IC50; for inhibition at 10 µM: @ 10 μM compound, read-out: PDE1 C, % inhibition @ 10 μM; for inhibition at 1 µM: @ 1 μM compound, read-out: PDE1 C, % inhibition @ 1 μM. As for the experimental part:
(§1) PDE1A, PDE1B and PDE1C assays were performed as follows: the assays were performed in 60 μL samples containing a fixed amount of the PDE1 enzyme (sufficient to convert 20-25% of the cyclic nucleotide substrate), a buffer (50 mM HEPES (4-(2-hydroxyethyl)-1-piperazineethanesulfonic acid) pH 7.6; 10 mM MgCl2; 0.02% Tween20), 0.1 mg/ml BSA (bovine serum albumin), 15 nM tritium labelled cAMP and varying amounts of inhibitors. Reactions were initiated by addition of the cyclic nucleotide substrate, and reactions were allowed to proceed for 1 hr at room temperature before being terminated through mixing with 20 μL (0.2 mg) yttrium silicate SPA beads (PerkinElmer). The beads were allowed to settle for 1 hour in the dark before the plates were counted in a Wallac 1450 Microbeta counter. The measured signals were converted to activity relative to an uninhibited control (100%) and IC50 values were calculated using XIFit (model 205, IDBS).

The target in a further assay is PDE1B (Homo sapiens (Human), UniProt Q01064). The assay can be described thus: PDE1 inhibition assay, PDE1B. The conditions noted are these: for IC50: 15 nM tritium labelled cAMP, 1 hr at room temperature, SPA beads, read-out: PDE1 B, IC50. As for the experimental part:
as §1

A further assay has as its target PDE1A (Homo sapiens (Human), UniProt P54750). The assay can be described thus: PDE1 inhibition assay, PDE1A. The conditions noted are these: for IC50: 15 nM tritium labelled cAMP, 1 hr at room temperature, SPA beads; for inhibition at 10 µM: @ 10 μM compound; for inhibition at 1 µM: @ 1 μM compound. As for the experimental part:
as §1

Chain of PDE1A (P54750 whole entry): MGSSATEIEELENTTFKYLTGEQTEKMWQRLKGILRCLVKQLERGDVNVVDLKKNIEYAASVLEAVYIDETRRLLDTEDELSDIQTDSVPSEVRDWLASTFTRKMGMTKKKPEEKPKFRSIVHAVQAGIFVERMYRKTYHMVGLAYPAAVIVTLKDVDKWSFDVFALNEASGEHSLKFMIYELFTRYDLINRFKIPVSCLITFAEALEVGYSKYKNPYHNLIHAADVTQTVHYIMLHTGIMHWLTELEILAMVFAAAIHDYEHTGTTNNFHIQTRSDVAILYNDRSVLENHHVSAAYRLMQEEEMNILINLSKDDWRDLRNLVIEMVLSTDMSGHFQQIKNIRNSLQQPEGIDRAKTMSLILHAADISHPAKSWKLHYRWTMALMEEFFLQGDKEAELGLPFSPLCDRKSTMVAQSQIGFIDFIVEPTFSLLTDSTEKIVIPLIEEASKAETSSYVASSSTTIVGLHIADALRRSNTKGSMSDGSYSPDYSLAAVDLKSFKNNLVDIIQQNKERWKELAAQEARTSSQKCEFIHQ
Chain of PDE1B (Q01064 whole entry): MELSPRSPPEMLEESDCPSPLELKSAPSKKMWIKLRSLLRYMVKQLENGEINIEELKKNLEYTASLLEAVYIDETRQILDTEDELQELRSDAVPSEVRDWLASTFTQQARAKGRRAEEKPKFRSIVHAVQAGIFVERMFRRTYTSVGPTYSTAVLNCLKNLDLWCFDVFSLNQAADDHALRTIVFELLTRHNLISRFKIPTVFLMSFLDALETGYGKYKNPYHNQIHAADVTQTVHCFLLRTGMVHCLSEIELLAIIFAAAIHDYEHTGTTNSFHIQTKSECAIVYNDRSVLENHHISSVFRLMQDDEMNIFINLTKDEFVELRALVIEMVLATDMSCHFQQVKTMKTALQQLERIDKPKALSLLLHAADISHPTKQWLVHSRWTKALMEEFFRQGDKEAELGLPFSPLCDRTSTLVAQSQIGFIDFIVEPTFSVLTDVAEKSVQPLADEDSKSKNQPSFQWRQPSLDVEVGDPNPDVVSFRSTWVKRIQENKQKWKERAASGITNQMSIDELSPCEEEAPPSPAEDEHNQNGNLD
Chain of PDE1C (Q14123 whole entry): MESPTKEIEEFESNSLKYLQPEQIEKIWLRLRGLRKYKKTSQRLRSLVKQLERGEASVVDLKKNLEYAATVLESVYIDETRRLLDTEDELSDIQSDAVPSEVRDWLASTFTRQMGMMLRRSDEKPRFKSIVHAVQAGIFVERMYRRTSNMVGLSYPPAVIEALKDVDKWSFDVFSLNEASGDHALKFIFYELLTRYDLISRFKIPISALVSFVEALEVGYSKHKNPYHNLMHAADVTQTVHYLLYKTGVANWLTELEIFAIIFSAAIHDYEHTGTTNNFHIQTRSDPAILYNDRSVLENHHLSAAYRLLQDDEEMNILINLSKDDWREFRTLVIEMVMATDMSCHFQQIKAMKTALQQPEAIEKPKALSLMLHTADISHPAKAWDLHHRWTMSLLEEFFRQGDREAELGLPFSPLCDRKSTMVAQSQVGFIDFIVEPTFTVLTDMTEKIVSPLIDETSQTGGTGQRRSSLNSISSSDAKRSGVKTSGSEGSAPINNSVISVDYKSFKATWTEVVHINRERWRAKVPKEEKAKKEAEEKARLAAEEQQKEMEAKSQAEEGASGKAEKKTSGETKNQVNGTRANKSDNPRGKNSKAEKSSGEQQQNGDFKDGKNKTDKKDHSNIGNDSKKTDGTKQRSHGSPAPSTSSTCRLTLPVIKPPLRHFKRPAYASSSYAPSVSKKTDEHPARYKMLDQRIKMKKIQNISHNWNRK

The IC50 is the concentration that gives 50% inhibition. On to `CCCn1ncc2nc(-c3cccnc3OCC)cc(N[C@@H]3CCOC3)c21` (single isomer, unassigned) [Example 24, 5-(2-ethoxy-3-pyridyl)-1-propyl-N-[tetrahydrofuran-3-yl]pyrazolo[4,3-b]pyridin-7-amine], for which the IC50 at PDE1C was 703 nM; on PDE1B it was 177 nM; against PDE1A, 327 nM.

For the compound `CCOc1ncccc1-c1cc(N2CCCC2)c2c(cnn2C)n1` [Example 14, 5-(2-ethoxy-3-pyridyl)-1-methyl-7-pyrrolidin-1-yl-pyrazolo[4,3-b]pyridine], the IC50 at PDE1C was 3500 nM; at PDE1B it was 640 nM; on PDE1A, 1090 nM.

On to `CCOc1ncccc1-c1cc(N)c2c(n1)c(C)nn2C(C)C` [Example 69, 5-(2-ethoxy-3-pyridyl)-1-isopropyl-3-methyl-pyrazolo[4,3-b]pyridin-7-amine], for which the IC50 on PDE1C is 129 nM; at PDE1B, 13 nM; against PDE1A, 62 nM.

Take `CCOc1ncccc1-c1cc(NC(C)C)c2c(cnn2C(C)C)n1` [Example 12, 5-(2-ethoxy-3-pyridyl)-N,1-diisopropyl-pyrazolo[4,3-b]pyridin-7-amine]: the IC50 is 2230 nM at PDE1C, 108 nM on PDE1B and 1120 nM against PDE1A.

For `CCCn1ncc2nc(-c3cccnc3OCC)cc(N[C@@H]3CCOC3)c21` (single isomer, unassigned) [Example 23, 5-(2-ethoxy-3-pyridyl)-1-propyl-N-[tetrahydrofuran-3-yl]pyrazolo[4,3-b]pyridin-7-amine], the IC50 stood at 2540 nM at PDE1C, 171 nM on PDE1B and 481 nM against PDE1A.

As to `CCOc1ncccc1-c1ccn2c(CC(F)(F)F)nc(C)c2n1` [Example 78, 2-(2-ethoxy-3-pyridyl)-8-methyl-6-(2,2,2-trifluoroethyl)imidazo[1,5-a]pyrimidine], the half-inhibitory concentration (IC50) on PDE1C is 717 nM; at PDE1B, 207 nM; against PDE1A it was 321 nM.

Broadly, the inhibition is the share of the control response that was lost under treatment. Regarding `COCc1cccc(-c2cc(N[C@@H]3CCOC3)c3c(cnn3C(C)C)n2)c1` [Example 45, 1-isopropyl-5-[3-(methoxymethyl)phenyl]-N-[(3R)-tetrahydrofuran-3-yl]pyrazolo[4,3-b]pyridin-7-amine], at PDE1C, the inhibition at 10 µM is 72%. Further, the IC50 came out at 341 nM at PDE1B and 2480 nM on PDE1A.

As to `CCOc1ncccc1-c1nc2c(C)nc(C(C)C)n2cc1C` [Example 71, 2-(2-ethoxy-3-pyridyl)-6-isopropyl-3,8-dimethyl-imidazo[1,5-a]pyrimidine], the IC50 at PDE1C was found to be 99 nM; on PDE1B, 17 nM; at PDE1A, 74 nM.

As for `CCOc1ccc(-c2cc(N[C@@H]3CCOC3)c3c(cnn3C(C)C)n2)cc1` [Example 33, 5-(4-ethoxyphenyl)-1-isopropyl-N-[(3R)-tetrahydrofuran-3-yl]pyrazolo[4,3-b]pyridin-7-amine], the inhibition at 10 µM at PDE1C worked out at 24%; at PDE1B (@ 10 μM compound, read-out: PDE1 B, % inhibition @ 10 μM) it was 46%; on PDE1A it was 20%.

Take `CCOc1ncncc1-c1cc(NC2CCOC2)c2c(cnn2C(C)C)n1` (stereo in doubt) [Example 50, 5-(4-ethoxypyrimidin-5-yl)-1-isopropyl-N-[(3R)-tetrahydrofuran-3-yl]pyrazolo[4,3-b]pyridin-7-amine]: the IC50 at PDE1C was 1810 nM; at PDE1B, 916 nM; against PDE1A, 3000 nM.

With `CCCOc1ncccc1-c1nc2c(C)nn(C(C)C)c2cc1C` [Example 64, 1-isopropyl-3,6-dimethyl-5-(2-propoxy-3-pyridyl)pyrazolo[4,3-b]pyridine], the IC50 at PDE1C came to 220 nM; on PDE1B, 25 nM; against PDE1A, 118 nM.

Consider `CCOc1ccccc1-c1cc(N[C@@H]2CCOC2)c2c(cnn2C(C)C)n1` [Example 53, 5-(2-ethoxyphenyl)-1-isopropyl-N-[(3R)-tetrahydrofuran-3-yl]pyrazolo[4,3-b]pyridin-7-amine], for which the inhibition at 10 µM at PDE1C is 61%; at PDE1A it was 73%. Besides, at PDE1B, the half-inhibitory concentration (IC50) was determined as 299 nM.

Consider `CCOc1ncccc1-c1ccn2c(C3CC3)nc(C)c2n1` [Example 74, 6-cyclopropyl-2-(2-ethoxy-3-pyridyl)-8-methyl-imidazo[1,5-a]pyrimidine], for which the IC50 at PDE1C came to 1180 nM; on PDE1B, 121 nM; against PDE1A it was 394 nM.

For the compound `CCOc1ncccc1-c1ccc2c(n1)c(C)nn2C(C)C` [Example 59, 5-(2-ethoxy-3-pyridyl)-1-isopropyl-3-methyl-pyrazolo[4,3-b]pyridine], the concentration for half-maximal inhibition (IC50) was found to be 180 nM at PDE1C, 26 nM at PDE1B and 52 nM at PDE1A.

For `COc1cccc(Cc2cc(N[C@@H]3CCOC3)c3c(cnn3C(C)C)n2)c1` [Example 37, 1-isopropyl-5-[(3-methoxyphenyl)methyl]-N-[(3R)-tetrahydrofuran-3-yl]pyrazolo[4,3-b]pyridin-7-amine], the concentration for half-maximal inhibition (IC50) is 1680 nM at PDE1C and 1340 nM at PDE1B. This compound yielded an inhibition at 10 µM against PDE1A of 60%.

For `CCOc1ncccc1-c1ccn2c(C3CCC3)nc(C)c2n1` [Example 73, 6-cyclobutyl-2-(2-ethoxy-3-pyridyl)-8-methyl-imidazo[1,5-a]pyrimidine], the results for the IC50 at PDE1C, at PDE1B and at PDE1A were 2090 nM, 296 nM and 1550 nM, respectively.

`CCOc1ncccc1-c1nc2c(C)nn(C(C)C)c2cc1C` [Example 63, 5-(2-ethoxy-3-pyridyl)-1-isopropyl-3,6-dimethyl-pyrazolo[4,3-b]pyridine]: the half-inhibitory concentration (IC50) on PDE1C was 175 nM; on PDE1B it was 16 nM; against PDE1A, 86 nM.

`COc1ncccc1-c1cc(N[C@@H]2CCOC2)c2c(cnn2C(C)C)n1` [Example 28, 1-isopropyl-5-(2-methoxy-3-pyridyl)-N-[(3R)-tetrahydrofuran-3-yl]pyrazolo[4,3-b]pyridin-7-amine]: the results for the concentration for half-maximal inhibition (IC50) at PDE1C, on PDE1B and on PDE1A were 1080 nM, 124 nM and 533 nM, respectively.

With `CCOc1ncccc1-c1cc(NC)c2c(n1)c(C)nn2C(C)C` [Example 65, 5-(2-ethoxy-3-pyridyl)-1-isopropyl-N,3-dimethyl-pyrazolo[4,3-b]pyridin-7-amine], the IC50 on PDE1C is 111 nM; on PDE1B it was 7 nM; against PDE1A, 50 nM.

As for `CCOc1ncccc1-c1cc(N[C@@H]2CCOC2)c2c(cnn2CC)n1` (single isomer, unassigned) [Example 20, 5-(2-ethoxy-3-pyridyl)-1-ethyl-N-[tetrahydrofuran-3-yl]pyrazolo[4,3-b]pyridin-7-amine], the IC50 at PDE1C came to 957 nM; at PDE1B, 179 nM; at PDE1A, 467 nM.

For the compound `CCOc1ncccc1-c1cc(N2CCCC2)c2c(n1)c(C)nn2C` [Example 1, 5-(2-ethoxy-3-pyridyl)-1,3-dimethyl-7-pyrrolidin-1-yl-pyrazolo[4,3-b]pyridine], the inhibition at 1 µM was determined as 49% at PDE1C and 70% on PDE1A. The IC50 at PDE1B came out at 170 nM.

`CCOc1ncccc1-c1cc(N2CCCC2)c2c(cnn2C2COC2)n1` [Example 4, 5-(2-ethoxy-3-pyridyl)-1-(oxetan-3-yl)-7-pyrrolidin-1-yl-pyrazolo[4,3-b]pyridine]: the inhibition at 1 µM on PDE1C stood at 56%. Besides, the IC50 was determined as 95 nM at PDE1B and 641 nM against PDE1A.

As for `CCOc1ncccc1-c1cc(N[C@@H]2CCCOC2)c2c(cnn2C(C)C)n1` [Example 8, 5-(2-ethoxy-3-pyridyl)-1-isopropyl-N-[(3R)-tetrahydropyran-3-yl]pyrazolo[4,3-b]pyridin-7-amine], the figures for the IC50 at PDE1C, on PDE1B and on PDE1A were 2870 nM, 423 nM and 2160 nM, respectively.

As for `CCOc1ncccc1-c1ccn2c(C3COC3)nc(C)c2n1` [Example 79, 2-(2-ethoxy-3-pyridyl)-8-methyl-6-(oxetan-3-yl)imidazo[1,5-a]pyrimidine], the IC50 was 632 nM at PDE1C, 78 nM on PDE1B and 406 nM at PDE1A.

As for `CCOc1ncccc1-c1cc(NC)c2c(cnn2C(C)C)n1` [Example 13, 5-(2-ethoxy-3-pyridyl)-1-isopropyl-N-methyl-pyrazolo[4,3-b]pyridin-7-amine], the IC50 on PDE1C was 1060 nM; on PDE1B, 85 nM; on PDE1A, 1030 nM.

As for `CCOc1ncccc1-c1cc(N[C@@H]2CCC[C@H]2OC)c2c(cnn2C)n1` [Example 86, 5-(2-ethoxy-3-pyridyl)-N-[(1R,2R)-2-methoxycyclopentyl]-1-methyl-pyrazolo[4,3-b]pyridin-7-amine], the inhibition at 1 µM on PDE1C came to 20%; against PDE1A, 22%. Further, the IC50 at PDE1B is 536 nM.

Turning to `CCOc1nccc(C)c1-c1cc(N[C@@H]2CCOC2)c2c(cnn2C(C)C)n1` [Example 34, 5-(2-ethoxy-4-methyl-3-pyridyl)-1-isopropyl-N-[(3R)-tetrahydrofuran-3-yl]pyrazolo[4,3-b]pyridin-7-amine], the values for the IC50 at PDE1C, on PDE1B and against PDE1A were 580 nM, 157 nM and 380 nM, respectively.

The values above are taken from patent US11535611B2, “Pyrazolo[3,4-B]pyridines and imidazo[1,5-B]pyridazines as PDE1 inhibitors” (H. Lundbeck A/S, priority 2017, dated 2022).
